The values that follow come from patent US12421270B2, “Oligosaccharide, preparation method therefor, composition thereof and use thereof” (YANTAI DONGCHENG BIOCHEMICALS CO., LTD, priority 2018, dated 2025).

What all share (format): biochemical
The test system of test [1] is platelet-poor plasma. The experiment in a line: APTT assay (activated partial thrombin time), anticoagulant activity test. The following applies: 37° C., fibrin formation time. As to the method:
(§1) Oligosaccharide compounds of the present application, J1 (a compound of formula J, in which Y=Na, q=1, R is azido, and ? is in β configuration), J2 (a compound of formula J, in which Y=Na, q=2, R is azido, and ? is in β configuration), J3 (a compound of formula J, in which Y=Na, q=3, R is azido, and ? is in β configuration), and J4 (a compound of formula J, in which Y=Na, q=4, R is azido, and ? is in β configuration) were assayed for anticoagulant activity, including activated partial thrombin time (APTT), prothrombin time (PT) and thrombin time (TT).
(§2) The whole experiment was carried out according to the instruction of the APTT kit. Firstly, 20 ul of platelet-poor plasma and 5 ul of the solution to be tested (control or sample solution) were mixed into a test cup and incubated in preheating zone at 37° C. for 3 min. Then 25 ul of APTT reagent was added to the mixed system, and then continued to incubate at 37° C. for 3 min. Next, the test cup was moved to the test zone, and 25 ul of calcium chloride solution preheated for 5 min was added. At the same time, recording of fibrin formation time was immediately initiated, and when the experiment was completed, the fibrin formation time was read from the coagulation analyzer.
(§3) Results of the assays are as follows (data in the table represent the concentration required to double APTT/PT/TT): […]

Test [2] has as its system platelet-poor plasma. The experiment in a line: PT assay (prothrombin time), anticoagulant activity test. The conditions noted are these: 37° C., fibrin formation time. As to the method: as §1
as §2, with “PT” for “APTT”, “Then” for “Then 25 ul of APTT reagent was added to the mixed system, and then continued to incubate at 37° C. for 3 min. Next,”, “50” for “25”, “of” for “of calcium chloride solution”, “PT reagent” for “for 5 min”, “added (preheating time is longer than 10 min, but not more than 30 min).” for “added.”
as §3

Test [3] deals with platelet-poor plasma. The test is described as follows: TT assay (thrombin time), anticoagulant activity test. The conditions noted are these: 37° C., fibrin formation time, last column of table. As to the method: as §1
as §2, with “TT” for “APTT”, “Then” for “Then 25 ul of APTT reagent was added to the mixed system, and then continued to incubate at 37° C. for 3 min. Next,”, “50” for “25”, “of” for “of calcium chloride solution”, “TT reagent” for “for 5 min”, “added (preheating time is longer than 10 min, but not more than 30 min).” for “added.”
as §3

Some results are limits rather than exact numbers.

As to “azido{(2,4-di-O-sulfo-α-L-fucosyl)-(1→3)-(β-D-glucopyranosyluronic acid)-(1→3)-(4,6-di-O-sulfo-2-deoxy-2-N-acetamino-β-D-galactopyranosyl)-(1→4)-[(2,4-di-O-sulfo-α-L-fucosyl)-(1→3)-(β-D-glucopyranosyluronic acid)-(1→3)-(4,6-di-O-sulfo-2-deoxy-2-N-acetamido-β-D-galactopyranosyl)]} decasodium salt [Compound J1]”, the “APTT (concentration required to double APTT)” value with platelet-poor plasma [1] worked out at 120.39 µg/mL. In the test with platelet-poor plasma [2], the “PT (concentration required to double PT)” value was greater than 128 µg/mL. Also, the “Concentration required to double TT” value in the test on platelet-poor plasma [3] is greater than 128 µg/mL.
